Experimental findings from ChEMBL document CHEMBL1149134, “2-aminothiazole-derived opioids. Bioisosteric replacement of phenols” (J Med Chem, 2004) are described below.

Experiment [1] has as its target T1, Mu-type opioid receptor (Homo sapiens, UniProt P35372). The arrangement: species or system Cricetulus griseus.
Description: Inhibition of [3H]-DAMGO binding to Opioid receptor mu 1 of Chinese hamster ovary membrane
In experiment [2] the target is T2, Kappa-type opioid receptor (Homo sapiens, UniProt P41145). Details: species or system Cricetulus griseus.
Description: Inhibition of [3H]U-69593 binding to Opioid receptor kappa 1 of Chinese hamster ovary membrane
The target in experiment [3] is Delta-type opioid receptor (Homo sapiens, UniProt P41143). Nature of the experiment: Inhibition of [3H]naltrindole binding to opioid receptor delta 1 of Chinese hamster ovary membrane. Details: species or system Cricetulus griseus.
Delta-type opioid receptor, sequence (P41143 whole entry): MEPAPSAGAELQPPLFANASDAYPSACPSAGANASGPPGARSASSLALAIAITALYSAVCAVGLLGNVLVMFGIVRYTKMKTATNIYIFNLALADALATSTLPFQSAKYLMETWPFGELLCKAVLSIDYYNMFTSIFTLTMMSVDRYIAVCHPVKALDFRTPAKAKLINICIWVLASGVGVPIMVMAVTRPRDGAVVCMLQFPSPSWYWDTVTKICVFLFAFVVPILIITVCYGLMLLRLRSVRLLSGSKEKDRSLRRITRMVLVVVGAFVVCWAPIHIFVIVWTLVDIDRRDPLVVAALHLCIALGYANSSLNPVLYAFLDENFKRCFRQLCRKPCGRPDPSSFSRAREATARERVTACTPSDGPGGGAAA
Experiment [4] concerns the target T2, Kappa-type opioid receptor. Kind of experiment: Agonistic activity against kappa opioid receptor in Chinese hamster ovary membranes. It counts as functional, cell membranes, Cricetulus griseus.
For experiment [5], the target named is T1, Mu-type opioid receptor.
Description: Agonistic activity against Opioid receptor mu 1 in Chinese hamster ovary membranes
For experiment [6], the target named is T2, Kappa-type opioid receptor. Kind of experiment: Binding ability against kappa opioid receptor by stimulating the [35S]GTP-gamma-S, radioligand in Chinese hamster ovary membranes. In kind it is functional, cell membranes. The note with it: Cricetulus griseus. A general note: GTPγS resists hydrolysis and so accumulates on activated G proteins.

Broadly, the Ki is the dissociation constant of the complex between target and ligand, obtained from inhibition or displacement. The EC50 is the concentration needed to bring the measured effect to its halfway point. Low values mean greater potency, high ones weaker potency. A word on the Emax: it is the greatest response seen or fitted, relative to the assay's reference.

T2 sequence (P41145 whole entry): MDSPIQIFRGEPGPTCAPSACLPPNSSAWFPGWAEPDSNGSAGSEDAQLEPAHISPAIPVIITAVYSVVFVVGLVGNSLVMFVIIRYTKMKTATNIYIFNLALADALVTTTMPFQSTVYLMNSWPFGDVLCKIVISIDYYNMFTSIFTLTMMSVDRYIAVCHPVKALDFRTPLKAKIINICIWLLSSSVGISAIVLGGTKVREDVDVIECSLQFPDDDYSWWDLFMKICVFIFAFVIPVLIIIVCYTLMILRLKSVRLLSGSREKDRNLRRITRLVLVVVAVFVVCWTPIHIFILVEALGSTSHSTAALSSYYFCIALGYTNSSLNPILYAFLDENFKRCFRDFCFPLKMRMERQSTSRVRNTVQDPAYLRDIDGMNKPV
T1 sequence (P35372 whole entry): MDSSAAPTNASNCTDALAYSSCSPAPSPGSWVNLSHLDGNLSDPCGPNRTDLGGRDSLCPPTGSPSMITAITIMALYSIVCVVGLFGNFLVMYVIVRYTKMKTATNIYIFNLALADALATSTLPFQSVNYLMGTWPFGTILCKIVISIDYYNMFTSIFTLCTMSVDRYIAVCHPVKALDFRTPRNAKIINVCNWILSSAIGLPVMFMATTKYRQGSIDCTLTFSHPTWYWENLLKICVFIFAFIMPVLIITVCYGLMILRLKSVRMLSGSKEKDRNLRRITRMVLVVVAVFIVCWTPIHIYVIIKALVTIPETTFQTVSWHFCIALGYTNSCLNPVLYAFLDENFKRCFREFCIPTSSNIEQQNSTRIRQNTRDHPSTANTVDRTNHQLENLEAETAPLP

As for `CN1CC[C@]23CCCC[C@H]2[C@H]1Cc1cc2sc(N)nc2cc13` (stereo in doubt; 4), the Ki is 1.1 nM in experiment [1], 6.4 nM in experiment [2] and 190 nM in experiment [3].
For the compound `C[C@H]1C2Cc3ccc(O)cc3[C@]1(C)CCN2CC1CC1`, the Ki in experiment [2] came to 0.18 nM; in experiment [3], 1.1 nM.
`Nc1nc2cc3c(cc2s1)C[C@@H]1[C@@H]2CCCC[C@]32CCN1CC1CC1`: the 50% effective concentration (EC50) in experiment [4] is 2.4 nM; in experiment [5], 73 nM. The same compound displayed an Emax in experiment [6] of 80%.
For `Nc1nc2cc3c(cc2s1)C[C@@H]1[C@@H]2CCCC[C@]32CCN1CC1CCC1`, the concentration giving a half-maximal response (EC50) in experiment [4] was found to be 29 nM. The same compound yielded a maximal effect (Emax) in experiment [6] of 80%.
On to `C[C@H]1[C@H]2Cc3cc4sc(N)nc4cc3[C@]1(C)CCN2CC1CC1`, for which the Ki was found to be 48 nM in experiment [1], 6.7 nM in experiment [2] and 940 nM in experiment [3].
Consider `C[C@H]1[C@H]2Cc3cc4sc(N)nc4cc3[C@]1(C)CCN2CC1CCC1`, for which the Ki turned out to be 8.3 nM in experiment [1], 0.49 nM in experiment [2] and 93 nM in experiment [3].
The corresponding values for `CN1CC[C@]23c4c5cc6sc(N)nc6c4O[C@H]2[C@@H](O)CCC3[C@H]1C5` (some centres not stated) are 30 nM, 220 nM and 32 nM.
For the compound `Nc1nc2cc3c(cc2s1)C(=O)[C@@H]1C2CCCC[C@]32CCN1CC1CCC1` (some centres not stated), the values for the inhibition constant (Ki) in experiment [1], in experiment [2] and in experiment [3] were 200 nM, 13 nM and more than 10000 nM, respectively.
